Measured values reported in patent publication US20110251286A1, “Crystalline salts and/or co-crystals of O-desmethyltramadol” (GRUENENTHAL GmbH, priority 2010, published 2011).

Tests used:
[1] = Determination of equilibrium solubilities in aqueous solutions at various pHs; settings: thermodynamic from solid
Experimental: The equilibrium solubilities of the compounds investigated were determined in aqueous solutions at various pHs and the pH-dependent solubility profile and the solubilities at different pHs were compared here. In this case, the content determination was carried out by means of capillary electrophoresis.

[2] = Release in artificial intestinal juice; format: physicochemical; settings: after two to 4 minutes; artificial intestinal juice pH 6.8, 37 °C
Experimental: Investigations on release were carried out in a Sotax AT7 smart release apparatus with UV measurement (Perkin Elmer photometer).
A vessel with Wood apparatus was used (for intrinsic release).
A pressing of 0.5 cm^2 surface area (diameter 8 mm) was produced with a force of 200 N using approximately 100 mg of active ingredient.
Release was carried out in a release medium, which is composed as described below: • Intestinal juice without pancreas powder, pH 6.8 (analogous to Ph. Eur.); 250.0 ml 6.8 g of potassium dihydrogenphosphate R+0.896 g of NaOH+water to 1000.0 ml.
Release was carried out in a release volume of in each case 500±5 ml at a temperature of the release medium of 37±1° C. with a stirring speed of 100±5 rpm.
The content determination was carried out by means of spectroscopic methods (UV spectroscopy, wavelength: 271 nm, cuvette: 10 mm). Sample taking was carried out manually.
In this release experiment, the individual compounds were placed in a permeable bag in an amount in each case calculated on 100 mg of the free base.
The results, expressed in percent of the substance released, are reproduced in the following tables. In this case, the compounds denote: HCl: hydrochloride; A: cinnamate; B: palmitate; C: decanoate; E: hemi-fumarate and F: hemi-sebacate.

SMILES: CN(C)C[C@H]1CCCC[C@]1(O)c1cccc(O)c1.Cl [hydrochloride, (+)-(1R,2R)-3-[2-(dimethylamino)methyl-1-hydroxycyclohexyl]phenol hydrochloride]
- solubility thermodynamic ([1]; aqueous with cosolvent or surfactant or cyclodextrin): 1090 mM
- solubility thermodynamic ([1]; pH 1.4, simulated gastric fluid): 582 mM
- solubility thermodynamic ([1]; pH 4.3, aqueous buffer): 666 mM
- solubility thermodynamic ([1]; pH 6.8, aqueous buffer): 698 mM
- solubility thermodynamic ([1]; pH 7.4, aqueous buffer): 867 mM
- solubility thermodynamic ([1]; pH 11, aqueous buffer): 979 mM
- solubility thermodynamic ([1]; water): 983 mM
- substance passed into the artificial intestinal fluid [2]: ~100%
